Experimental findings from patent US11230526B1, “Cylcoalkenyl derivatives useful as agonists of the GPR120 and/or GPR40 receptors” (Janssen Pharmaceutica NV, priority 2018, dated 2022) are described below.

Common to all, as to format: cell-based
Assay [1] deals with T1, human GPR40 (Homo sapiens, UniProt O14842).
T1 construct: expressed in transfected cells
The experiment in a line: GPR40 calcium flux assay, human GPR40. The conditions noted are these: HEK293 cells stably expressing GPR40; table does not say human or rat. Summed up:
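Cells preincubated 1 h at 37° C. in HBSS, 20 mM HEPES, 0.1% BSA, then Fluo 8 calcium dye 30 min at 37° C. and 15 min at room temperature.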
On the technique in general: A change in cytosolic calcium serves as a functional read-out for many receptors and channels.

Assay [2] concerns the target T2, Human GPR120 short form (Homo sapiens, UniProt Q5NUL3).
T2 construct: expressed in transfected cells
T2 sequence (Q5NUL3 1-361): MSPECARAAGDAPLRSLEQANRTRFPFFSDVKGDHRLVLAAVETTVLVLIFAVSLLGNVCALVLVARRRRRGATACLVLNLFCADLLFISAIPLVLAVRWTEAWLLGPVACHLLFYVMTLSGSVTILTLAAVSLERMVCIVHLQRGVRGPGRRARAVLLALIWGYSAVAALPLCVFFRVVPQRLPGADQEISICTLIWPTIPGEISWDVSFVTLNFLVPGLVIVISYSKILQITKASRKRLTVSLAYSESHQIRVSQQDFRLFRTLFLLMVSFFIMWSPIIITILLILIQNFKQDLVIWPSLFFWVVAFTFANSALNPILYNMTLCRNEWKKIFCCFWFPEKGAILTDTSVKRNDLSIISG
The experiment in a line: Human GPR120 calcium flux assay, Procedure Calcium B (4200 cells/well). Put shortly: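 Agonist EC50 came from a four-parameter fit of RFU (Fmax−Fmin) read over 300 s on FLIPR. Cells were HEK293 stably transfected with human GPR120 (NM_001195755.1) at 4200 per well, serum-starved 1 h and loaded with Fluo-4 NW dye with probenecid before ligand addition.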

The target of assay [3] is T2, Human GPR120 short form. The assay is described as follows: Human GPR120 calcium flux assay, Procedure Calcium A (2500 cells/well). The text has this: Human GPR120 in Calcium Flux Assay
This in vitro assay serves to assess test compound agonist activity against the short splice variant (SVS with Accession number NM_001195755.1 confirmed by sequencing data) of the GPR120 receptor. The Human Short splice variant #2 (NM_001195755.1) is missing an in-frame coding exon compared to variant 1 (the Human Long splice variant NM_181745.3), resulting in a shorter isoform (GPR120-S) lacking a 16 aa protein segment compared to isoform GPR120-L. The assay platform utilizes HEK-293 cells stably transfected to express the Human GPR120 short form. These cells are first loaded with the Ca^+2 sensitive dye, Fluo-4 NW. Upon stimulation, intracellular released Ca^+2 can bind to the dye and alter its fluorescence intensity. This increase in fluorescence signal, and thus the flux in intracellular [Ca^2+], is detected and quantitated by fluorescence imaging using a FLIPR reader. The effect of the agonist is measured as a function of concentration and used to calculate an EC50 based upon a response curve.
In this procedure 2500 cells/well were employed.
A Human GPR120 clone (Genbank accession number NM_001195755.1) was placed into the pcDNA3.1 mammalian expression vector carrying the neomycin resistance gene. A stable mammalian cell was generated by placing the above clone into a HEK293 background. Clonal cells responding to long chain fatty acids had expression levels of GPR120 confirmed by RT-qPCR. Human HEK-GPR120 cells were cultured in Dulbecco's Modified Eagle's Medium (DMEM)/F12 medium supplemented with 10% fetal bovine serum (FBS), 1% L-Glutamine and 1% penicillin/streptomycin and 0.5 mg/ml G-418. Cells were split 2 times a week to keep the cells in the log-phase growth.
In preparation for the assay, HEK cells stably transfected with Human GPR120 (2.5K cells per well in 25 uL growth medium) were seeded into 384-well plates and then incubated overnight (37° C., 5% CO2). The next day, the media was changed to 20 μL assay buffer and the cell starved for 1 h at 37° C. The dye loading solution (2× dye) was prepared using 10 mL assay buffer, 100 μL of 250 mM probenecid, 1 bottle of Component A, and 20 μl of dye in DMSO. Twenty μL of the 2× dye loading buffer was then added to each well. The plates were incubated at 37° C. for 30 min, then at room temperature for an additional 15 minutes, before performing the assay on FLIPR.
The assay was performed on a FLIPR plate reader using the following parameters. Baseline was read for 10 seconds at 1 sec intervals. The program was set to transfer 10 μL of ligand from compound plate to cell plate after baseline reading. Aspiration was executed at: 10 μL/sec speed, 4.6 μL height, Dispensing was executed at: 30 μL/sec speed, 45 μL height. After compound addition, each well was read for 300 sec, with measurements collected at 1 sec intervals.
The kinetic data from the FLIPR was based upon a 5 minute window for data collection. The fluorescence of each sample well was used for individual calculations of a normalized RFU value, which was defined as maximum response minus the minimum response. The normalized fluorescence reading (RFU) was calculated as follows: RFU=Fmax−Fmin
The Fitting Equation was: Y=Bottom+(Top-Bottom)/(1+10^((Log EC50−X)*HillSlope)), where X is the log of the concentration and Y is the response.

What is called EC50 is the concentration at which the effect is half-maximal.

T1 sequence (O14842 whole entry): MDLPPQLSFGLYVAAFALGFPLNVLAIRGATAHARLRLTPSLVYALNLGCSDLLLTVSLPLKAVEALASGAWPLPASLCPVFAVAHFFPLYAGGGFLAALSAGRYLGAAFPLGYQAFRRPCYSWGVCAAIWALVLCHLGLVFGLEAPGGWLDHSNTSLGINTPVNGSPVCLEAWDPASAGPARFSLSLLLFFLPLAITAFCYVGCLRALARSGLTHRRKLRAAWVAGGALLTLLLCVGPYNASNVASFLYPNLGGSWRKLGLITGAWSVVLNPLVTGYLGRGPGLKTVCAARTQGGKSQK

For the compound `Cc1cc(OCC2=C(c3ccc(Cl)cc3)CCC2)cc(C)c1CCC(=O)O` [Compound 119, 3-(4-((2-(4-chlorophenyl)cyclopent-1-en-1-yl)methoxy)-2,6-dimethylphenyl)Propanoic Acid], the EC50 in assay [1] is greater than 5000 nM; in assay [2], 327 nM; in assay [3] it was 895 nM.
In the case of `CCCc1ccc(C2=C(COc3ccc(CCC(=O)O)c(C)c3C)CCCC2)cc1` [Compound 463, 3-[2,3-dimethyl-4-[[2-(4-propylphenyl)cyclohexen-1-yl]methoxy]phenyl]Propanoic Acid], the half-maximal effective concentration (EC50) in assay [1] is greater than 5000 nM; in assay [2], 1620 nM; in assay [3] it was 4810 nM.
For `Cc1c(CCC(=O)O)ccc(OCC2=C(c3ccc(C#N)cc3)CCC2)c1C` [Compound 146, 3-[4-[[2-(4-cyanophenyl)cyclopenten-1-yl]methoxy]-2,3-dimethyl-phenyl]Propanoic Acid], the figures for the half-maximal effective concentration (EC50) in assay [1], in assay [2] and in assay [3] were greater than 5000 nM, 208 nM and 1560 nM, respectively.
The like results for `Cc1c(CCC(=O)O)ccc(OCC2=C(c3ccc(C(C)C)cc3)CCCC2)c1C` [Compound 516, 3-[4-[[2-(4-isopropylphenyl)cyclohexen-1-yl]methoxy]-2,3-dimethyl-phenyl]Propanoic Acid] were, in that order, greater than 5000 nM, 755 nM and 4610 nM.
On the same counts, the results for `Cc1c(CCC(=O)O)ccc(OCC2=C(c3ccc(C#N)cc3)CCCC2)c1C` [Compound 520, 3-[4-[[2-(4-cyanophenyl)cyclohexen-1-yl]methoxy]-2,3-dimethyl-phenyl]Propanoic Acid] are greater than 5000 nM, 1450 nM and 2360 nM.
As for `Cc1c(CCCC(=O)O)ccc(OCC2=C(c3ccc(Cl)cc3)CCC2)c1C` [Compound 127, 4-[4-[[2-(4-chlorophenyl)cyclopenten-1-yl]methoxy]-2,3-dimethyl-phenyl]Butanoic Acid], the EC50 is greater than 5000 nM in assay [1], 668 nM in assay [2] and 2780 nM in assay [3].
As to `Cc1ccc(C2=C(COc3ccc(CCC(=O)O)c(C)c3C)CCC2)cc1[N+](=O)[O-]` [Compound 115, 3-(2,3-dimethyl-4-((2-(4-methyl-3-nitrophenyl)cyclopent-1-en-1-yl)methoxy)phenyl)Propanoic Acid], the EC50 in assay [1] is greater than 5000 nM; in assay [2] it was 852 nM; in assay [3], 1120 nM.
On to `Cc1ccc(C2=C(COc3ccc(CCC(=O)O)c(F)c3F)CCC2)cc1[N+](=O)[O-]` [Compound 92, 3-(2,3-difluoro-4-((2-(4-methyl-3-nitrophenyl)cyclopent-1-en-1-yl)methoxy)phenyl)Propanoic Acid], for which the EC50 is greater than 5000 nM in assay [1], 373 nM in assay [2] and 1260 nM in assay [3].
For the compound `Cc1cc(OCC2=C(c3ccc(Cl)cc3)CCCC2)ccc1CCC(=O)O` [Compound 506, 3-[4-[[2-(4-chlorophenyl)cyclohexen-1-yl]methoxy]-2-methyl-phenyl]Propanoic Acid], the EC50 is greater than 5000 nM in assay [1], 182 nM in assay [2] and 1590 nM in assay [3].
As to `Cc1ccc(C2=C(COc3ccc(CCC(=O)O)cc3C)CCCC2)cn1` [Compound 477, 3-[3-methyl-4-[[2-(6-methyl-3-pyridyl)cyclohexen-1-yl]methoxy]phenyl]Propanoic Acid], the EC50 was greater than 5000 nM in assay [1], 256 nM in assay [2] and 1180 nM in assay [3].
As to `Cc1c(CCC(=O)O)ccc(OCC2=C(c3ncccn3)CCCC2)c1C` [Compound 475, 3-[2,3-dimethyl-4-[(2-pyrimidin-2-ylcyclohexen-1-yl)methoxy]phenyl]Propanoic Acid], the figures for the EC50 in assay [1], in assay [2] and in assay [3] were greater than 5000 nM, 2270 nM and 4480 nM, respectively.
Consider `Cc1ccc(C2=C(COc3ccc(CCC(=O)O)c(C)c3C)CCCC2)cn1` [Compound 521], for which the concentration giving a half-maximal response (EC50) in assay [1] was greater than 5000 nM; in assay [2], 626 nM; in assay [3], 1280 nM.
As for `Cc1c(CCC(=O)O)ccc(OCC2=C(c3cc(Cl)cc(Cl)c3)CCC2)c1C` [Compound 112, 3-[4-[[2-(3,5-dichlorophenyl)cyclopenten-1-yl]methoxy]-2,3-dimethyl-phenyl]Propanoic Acid′], the EC50 is greater than 5000 nM in assay [1], 3070 nM in assay [2] and 2460 nM in assay [3].
As to `Cc1c(CCC(=O)O)ccc(OCC2=C(c3ccc(Cl)cc3)CCC2(O)C(F)(F)F)c1C` (stereo not drawn) [Compound 69, 3-[4-[[2-(4-chlorophenyl)-5-hydroxy-5-(trifluoromethyl)cyclopenten-1-yl]methoxy]-2,3-dimethyl-phenyl]Propanoic Acid], the EC50 in assay [1] is greater than 5000 nM; in assay [2] it was 2460 nM; in assay [3] it was greater than 5000 nM.
In the case of `Cc1c(CCC(=O)O)ccc(OCC2=C(c3ccncc3)CCCC2)c1C` [Compound 465, 3-[2,3-dimethyl-4-[[2-(4-pyridyl)cyclohexen-1-yl]methoxy]phenyl]Propanoic Acid], the concentration giving a half-maximal response (EC50) was greater than 5000 nM in assay [1], 1450 nM in assay [2] and 2170 nM in assay [3].
In the case of `O=C(O)CCc1cc(F)c(OCC2=C(c3ccc(Cl)cc3)CCC(F)(F)C2)c(F)c1` [Compound 491, 3-[4-[[2-(4-chlorophenyl)-5,5-difluoro-cyclohexen-1-yl]methoxy]-3,5-difluoro-phenyl]Propanoic Acid], the results for the EC50 in assay [1], in assay [2] and in assay [3] were greater than 5000 nM, 97 nM and 532 nM, respectively.
